# Measurements: patent US11028127B2, “Peptides capable of reactivating p53 mutants” (Yeda Research and Development Co. Ltd., priority 2013, dated 2021)
# Target: T1, R175H p53 (Homo sapiens, UniProt P04637, R175H)
# T1 construct: a hot spot full length mutant p53 Mut-p53 R175H (R175H p53); expressed in transfected cells; host or cells: H1299 p53-/- cells, transient transfection
# Assay: TK-RGC-luc luciferase reporter assay in H1299 p53−/− cells
# Type: cell-based
# Conditions: peptides added 24 hours after transfection, read at 48 hours
# Description: FIG. 12 is a bar graph illustrating the relative luciferase activity (cLuc/gLuc) as measured in the various tested samples. Transient transfection of H1299 p53^−/− cells was performed with plasmids expressing WT p53, R175H p53, R249S p53 or empty vector as control, together with TK-RGC-luc, where luciferase expression is under control of a tandem array of multiple p53-responsive elements. 24 hours after transfection, cells were treated with the test peptides. 48 hours after transfection, a sample of the culture medium was taken for bioluminescence measurements.
# The oligonucleotide (RGC-W) that has the sequence 5′-[…]-3′ (SEQ ID NO:362), and the oligonucleotide mutant RGC oligonucleotide (RGC-M) that has the sequence 5′-[…]-3′ (SEQ ID NO:363), are both derived from Kern et al. (Kern, S. E., et al., Identification of p53 as a sequence-specific DNA-binding protein. Science, 1991. 252(5013): p. 1708-11), and serve as a consensus binding sites for WT p53.
# These motifs were cloned into the KPN and Eco53IK sites in pCLuc Mini-TK 2 Vector (NEB, Cat No. N0324S ). The Luciferase construct was used to assess transcriptional activation of p53 in test cells.
# H1299 p53-null cells were cultured overnight and then transfected with the luciferase constructs using MaxFect Transfection Agent (Mediatech) according to the manufacturer's protocol. Prior to the transfection, cell medium was exchanged to OPTI-MEM.
# The cells were treated with different peptides 24 hours after transfection. After additional 24 hours, growth medium was collected to 96 black plates: 40 μl for Cluc assay, and 20 μl for Gluc assay. Assay was performed using Turner BioSystems Modulus Microplate. Value was calculated by Cluc/gluc/NT (non-treated cells).
# As additional screening strategy used to identify reactivating peptides was performed in vivo and is based on a reporter gene assay. It measures p53 transcriptional activity by quantifying the activity of a reporter gene, placed under the control of a promoter containing 17 repeats of a p53 consensus binding site (RGC). The luciferase assay is performed on living cells and therefore provides an indication on the effect of test peptides on Mut-p53 function in the context of intact cells.
# For the in vivo luciferase based screening, H1299 cells were used. Transient transfection of these p53^−/− cells was performed with vectors expressing WT p53, R175H p53, R249S p53 or empty vector as control (Suad, O., et al., Structural basis of restoring sequence-specific DNA binding and transactivation to mutant p53 by suppressor mutations. J. Mol. Biol., 2009. 385(1): p. 249-65). Cells were also co-transfected with TK-RGC-luc (CAT. No. NEB, N0324S). 24 hours after transfection, cells were treated with the test peptides. […]
sequence,measurement,value
YRRLLIGMMWRRRRRRRRRRR [pCAP-68],transcription from TK-RGC-luc in the presence of R175H p53,induce transcription from TK-RGC-luc
